Columns and labels:
[1] = test system: SARS-CoV-2 Omicron BA.1 variant; assay: microbe, parasite or virus in culture; type: cell-based; settings: Severe acute respiratory syndrome coronavirus 2, Vero C1008, 24 h, read-out: EC50 Omicron BA.1 variant replication
SARS-CoV-2 Delta variant [2] = assay: microbe, parasite or virus in culture; type: cell-based; settings: Severe acute respiratory syndrome coronavirus 2, Vero C1008, 24 h, read-out: EC50 Delta variant replication
SARS-CoV-2 delta variant [3] = test system: SARS-CoV-2 delta variant; set-up: species or system K18-hACE2 mice; settings: mouse, in vivo

O=C(c1cc(=O)[nH]c2ccccc12)N1CCN(c2ccc(Cl)c(Cl)c2)CC1CN1CCOCC1 (centres unmarked) [JZD-07, 4-(4-(3,4-Dichlorophenyl)-2-(morpholinomethyl)piperazine-1-carbonyl)quinolin-2(1H)-one]
EC50 [1]: 6.03 µM | EC50 (SARS-CoV-2 Delta variant [2]): 7.24 µM | immunohistochemistry staining of viral nucleocapsid protein in lungs (SARS-CoV-2 delta variant [3]): suppressed viral titer in mice lungs | reduction of viral copy loads of the lung vs vehicle (SARS-CoV-2 delta variant [3]): ~1.0 log | reduction of viral titers of the lung vs vehicle (SARS-CoV-2 delta variant [3]): 2.0 log
